Measured values: patent publication US20100249071A1, “Modulators of S1P and Methods of Making And Using” (Exelixis, Inc., priority 2009, published 2010)
Like-named read-outs stand apart in the source and are kept apart here.

What was measured:
[1] = molecular target: T1, hS1P1R (hEdg1) membrane protein (Homo sapiens, UniProt P21453); assay: hS1P1R GTPγS binding assay (Assay 3a); type: biochemical
T1 construct: purchased Lonza
Summary of the method: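 Membranes (4 μg) expressing hS1P1R incubated 1 h at room temperature with 30 μM GDP, 0.1 nM [^35S]GTPγS, 0.25% fatty acid free BSA and serially diluted agonist in Tris-HCl pH 7.9/NaCl/MgCl2/EGTA buffer. Bound [^35S]GTPγS captured on WGA SPA beads (further 1 h) and counted.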

S1P1 = molecular target: T2, S1P1 (Homo sapiens, UniProt P21453); assay: Tango β-arrestin recruitment assay in U2OS cells (Assay 2b); type: cell-based
T2 construct: host or cells: U2OS
Summary of the method: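 In this agonist-mode Tango assay, U2OS cells carrying S1P1 and the reporter were serum-starved 48 h, then exposed overnight at 37 °C to compound (10 points, 3-fold, top 1 μM, 1% DMSO). β-Lactamase F460/F530 ratio was normalized to 1 μM S1P, and EC50 was fitted.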

[2] = molecular target: T3, hS1PR5 (hEdg8) membrane protein (Homo sapiens, UniProt Q9H228); assay: hS1P5R GTPγS binding assay (Assay 4); type: biochemical
T3 construct: expressed in transfected cells; host or cells: CHO
Summary of the method: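 Membranes (5 μg) from CHO cells expressing hS1PR5, incubated 1 h at room temperature with 30 μM GDP, 0.1 nM [35S]GTPγS, 0.25% fatty acid free BSA and serially diluted compound in pH 7.9 Tris buffer with MgCl2. WGA SPA beads added for another 1 h, then bound [35S]GTPγS counted by scintillation.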

S1P3 = molecular target: T4, S1P3 (Homo sapiens, UniProt Q99500); assay: S1P3 Tango β-arrestin recruitment assay in HEK293 cells (Assay 5); type: cell-based
T4 construct: host or cells: HEK293 (transient transfection)
Summary of the method: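 HEK293 cells transiently expressing S1P3 fused via TEV-cleavable linker to tTA, with β-arrestin2–TEV, treated 16-18 h at 37 °C with compounds (top 10 μM, 10-point 3-fold, 1% DMSO). Luciferase reporter luminescence normalised to DMSO background and 5 μM S1P control as percent activity; EC50 from concentration-response curves.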

circulating lymphocytes = assay: Lymphocyte PD assay in rats; type: in vivo, rat; conditions: 24 hours after oral single dose at 3 mg/kg, Female CD rats (Sprague Dawley), compared to vehicle-only group
Method: Suppression of circulating lymphocytes was assessed as a PD endpoint in jugular vein canulated Sprague Dawely (SD) rats 6-8 weeks of age and weighing approximately 200 g (Taconic Farms, Germantown, N.Y.). Prior initiating a study, rats were acclimated to the vivarium facility (12 h light cycle, 12 h dark cycle) for a minimum of 2 days. During a study, animals were provided food and water ad libitum and housed in a room conditioned at 70-75° F. and 60% relative humidity. All animals were examined daily for health assessment.
The Compound of the Invention were formulated and animals was dosed at a volume of 4 mL/kg. At indicated timepoints, whole blood was collected via jugular vein canulas into EDTA-coated tubes and hematology analysis was performed on an Abbott Cell-Dyn 3700 hematology analyzer. Readouts included white blood cells (total, differential, and % of total), neutrophils, lymphocytes, monocytes, eosinophils, basophils, RBC, HGB, hematocrit, mean corpuscule volume, mean corpuscule HGB concentration, RBC distribution width, platelets, and mean platelet volume.

[3] = * = rEC50 measured rather than EC50, read-out: Assay 5 rEC50 (relative EC50, cells marked *)

T3 sequence (Q9H228 whole entry): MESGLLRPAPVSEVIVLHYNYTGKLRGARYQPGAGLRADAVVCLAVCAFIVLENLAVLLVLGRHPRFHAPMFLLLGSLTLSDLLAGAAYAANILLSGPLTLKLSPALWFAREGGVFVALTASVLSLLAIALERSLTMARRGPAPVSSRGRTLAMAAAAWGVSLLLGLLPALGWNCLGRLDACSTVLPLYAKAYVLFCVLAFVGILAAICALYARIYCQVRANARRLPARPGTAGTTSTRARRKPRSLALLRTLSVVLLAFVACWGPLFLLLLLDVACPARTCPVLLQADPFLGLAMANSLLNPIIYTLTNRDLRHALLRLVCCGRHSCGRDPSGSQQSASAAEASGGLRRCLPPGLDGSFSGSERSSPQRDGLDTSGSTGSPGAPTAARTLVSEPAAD
T1 sequence (P21453 whole entry): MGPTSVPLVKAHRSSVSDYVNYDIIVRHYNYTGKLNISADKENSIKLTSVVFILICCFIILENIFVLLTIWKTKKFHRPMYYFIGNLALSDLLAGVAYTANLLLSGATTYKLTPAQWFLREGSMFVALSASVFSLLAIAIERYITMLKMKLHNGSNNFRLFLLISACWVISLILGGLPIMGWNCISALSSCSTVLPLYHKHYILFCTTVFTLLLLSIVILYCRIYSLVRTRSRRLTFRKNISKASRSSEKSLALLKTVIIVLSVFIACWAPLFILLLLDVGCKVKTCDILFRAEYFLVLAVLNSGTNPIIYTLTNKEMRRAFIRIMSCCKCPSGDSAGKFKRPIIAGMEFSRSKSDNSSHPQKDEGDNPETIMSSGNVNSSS
T2 sequence (P32121 whole entry): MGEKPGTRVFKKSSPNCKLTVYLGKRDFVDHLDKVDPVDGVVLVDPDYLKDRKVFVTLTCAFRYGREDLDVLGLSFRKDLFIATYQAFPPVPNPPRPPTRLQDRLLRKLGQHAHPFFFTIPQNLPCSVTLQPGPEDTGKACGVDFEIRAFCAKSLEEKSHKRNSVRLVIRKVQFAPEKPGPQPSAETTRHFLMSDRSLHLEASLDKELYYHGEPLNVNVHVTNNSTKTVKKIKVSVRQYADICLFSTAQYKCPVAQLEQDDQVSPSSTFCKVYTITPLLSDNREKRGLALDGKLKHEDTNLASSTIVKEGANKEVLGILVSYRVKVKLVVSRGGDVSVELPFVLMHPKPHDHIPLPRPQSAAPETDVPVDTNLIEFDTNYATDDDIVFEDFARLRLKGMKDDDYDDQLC
T2 sequence (P21453 whole entry): as the sequence (P21453 whole entry) above
T4 sequence (P32121 whole entry): as the sequence (P32121 whole entry) above
T4 sequence (Q99500 whole entry): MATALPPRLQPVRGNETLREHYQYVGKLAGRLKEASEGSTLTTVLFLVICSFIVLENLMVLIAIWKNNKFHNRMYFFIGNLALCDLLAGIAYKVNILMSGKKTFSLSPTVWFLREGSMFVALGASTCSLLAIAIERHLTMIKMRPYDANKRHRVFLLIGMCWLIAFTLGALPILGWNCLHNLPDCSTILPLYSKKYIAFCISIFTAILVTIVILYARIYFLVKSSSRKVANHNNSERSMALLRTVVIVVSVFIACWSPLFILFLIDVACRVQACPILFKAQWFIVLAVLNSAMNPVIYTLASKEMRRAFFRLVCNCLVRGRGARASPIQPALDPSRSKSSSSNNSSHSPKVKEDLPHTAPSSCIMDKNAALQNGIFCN

| Molecule | EC50 [1] [nM] | EC50 (S1P1; read-out: Assay 2b EC50) [nM] | EC50 [2] [nM] | EC50 (S1P3; read-out: Assay 5 EC50) [nM] | Lymphocyte Counts (p < 0.05) (circulating lymphocytes) [%] | EC50 (S1P3; [3]) [nM] | EC50 (S1P1; * = rEC50 measured rather than EC50, read-out: Assay 2b rEC50 (relative EC50, cells marked *)) [nM] |
| --- | --- | --- | --- | --- | --- | --- | --- |
| CC(C)Oc1ccc(-c2nnc(-c3cc(F)c(OC[C@H](N)CO)cc3Cl)s2)cc1C#N [Entry 37, 5-[5-(4-{[(2R)-2-amino-3-hydroxypropyl]oxy}-2-chloro-5-fluorophenyl)-1,3,4-thiadiazol-2-yl]-2-[(1-methylethyl)oxy]benzonitrile] | ≤ 10 | ≤ 10 | 10 to 50 | > 10000 | −93 | – | – |
| CC(C)Oc1ccc(-c2nnc(-c3cc(F)c(OC[C@H](N)[C@H](C)O)cc3Cl)s2)cc1Cl [Entry 72, (2S,3S)-3-amino-4-{[5-chloro-4-(5-{3-chloro-4-[(1-methylethyl)oxy]phenyl}-1,3,4-thiadiazol-2-yl)-2-fluorophenyl]oxy}butan-2-ol] | 10 to 50 | ≤ 10 | 50 to 250 | > 10000 | −86 | – | – |
| CC(C)Nc1ccc(-c2nnc(-c3cc(F)c(OC[C@@H](N)CO)cc3Cl)s2)cn1 [Entry 77, (2S)-2-amino-3-{[5-chloro-2-fluoro-4-(5-{6-[(1-methylethyl)amino]pyridin-3-yl}-1,3,4-thiadiazol-2-yl)phenyl]oxy}propan-1-ol] | 250 to 2800 | ≤ 10 | 250 to 2800 | > 10000 | −94 | – | – |
| CC(C)Nc1ccc(-c2nnc(-c3cc(F)c(OCC(N)CO)cc3Cl)s2)cn1 (centres unmarked) [Entry 44, 2-amino-3-{[5-chloro-2-fluoro-4-(5-{6-[(1-methylethyl)amino]pyridin-3-yl}-1,3,4-thiadiazol-2-yl)phenyl]oxy}propan-1-ol] | 250 to 2800 | ≤ 10 | 250 to 2800 | > 10000 | −94 | – | – |
| CC(C)Oc1ccc(-c2nnc(-c3cc(F)c(OC[C@H](N)[C@H](C)OP(=O)(O)O)cc3Cl)s2)cc1C#N [Entry 53, (1S,2S)-2-amino-3-{[5-chloro-4-(5-{3-cyano-4-[(1-methylethyl)oxy]phenyl}-1,3,4-thiadiazol-2-yl)-2-fluorophenyl]oxy}-1-methylpropyl dihydrogen phosphate] | ≤ 10 | ≤ 10 | ≤ 10 | > 10000 | – | – | – |
| CC(C)Oc1ccc(-c2nnc(-c3cc(F)c(OC[C@H](N)[C@@H](C)OP(=O)(O)O)cc3Cl)s2)cc1C#N [Entry 50, (1R,2S)-2-amino-3-{[5-chloro-4-(5-{3-cyano-4-[(1-methylethyl)oxy]phenyl}-1,3,4-thiadiazol-2-yl)-2-fluorophenyl]oxy}-1-methylpropyl dihydrogen phosphate] | ≤ 10 | ≤ 10 | ≤ 10 | ≤ 250 | – | – | – |
| CC(C)Oc1ccc(-c2nnc(-c3cc(F)c(OC[C@H](N)CO)cc3Cl)s2)nc1Cl [Entry 22, (2R)-2-amino-3-{[5-chloro-4-(5-{6-chloro-5-[(1-methylethyl)oxy]pyridin-2-yl}-1,3,4-thiadiazol-2-yl)-2-fluorophenyl]oxy}propan-1-ol] | 10 to 50 | 10 to 50 | 50 to 250 | > 10000 | – | – | – |
| Cc1cc(-c2nnc(-c3cc(F)c(OC[C@@H](N)[C@@H](C)O)cc3Cl)s2)cc(NC(C)C)n1 [Entry 97, (2R,3R)-3-amino-4-{[5-chloro-2-fluoro-4-(5-{2-methyl-6-[(1-methylethyl)amino]pyridin-4-yl}-1,3,4-thiadiazol-2-yl)phenyl]oxy}butan-2-ol] | ≤ 10 | ≤ 10 | 50 to 250 | > 250 | – | – | – |
| CC(C)Oc1ncc(-c2nnc(-c3cc(F)c(OCC(N)CO)cc3Cl)s2)cc1Cl (centres unmarked) [Entry 6, 2-amino-3-{[5-chloro-4-(5-{5-chloro-6-[(1-methylethyl)oxy]pyridin-3-yl}-1,3,4-thiadiazol-2-yl)-2-fluorophenyl]oxy}propan-1-ol] | 10 to 50 | ≤ 10 | 250 to 2800 | ≤ 250 | – | – | – |
| Cc1cc(-c2nnc(-c3cc(F)c(OC[C@H](N)[C@H](C)OP(=O)(O)O)cc3Cl)s2)cc(NC(C)C)n1 [Entry 95, (1S,2S)-2-amino-3-{[5-chloro-2-fluoro-4-(5-{2-methyl-6-[(1-methylethyl)amino]pyridin-4-yl}-1,3,4-thiadiazol-2-yl)phenyl]oxy}-1-methylpropyl dihydrogen phosphate] | ≤ 10 | ≤ 10 | 50 to 250 | > 250 | – | – | – |
| CC(C)Nc1ccc(-c2nnc(-c3cc(F)c(OC[C@H](N)CO)cc3Cl)s2)cc1Cl [Entry 43, (2R)-2-amino-3-{[5-chloro-4-(5-{3-chloro-4-[(1-methylethyl)amino]phenyl}-1,3,4-thiadiazol-2-yl)-2-fluorophenyl]oxy}propan-1-ol] | ≤ 10 | 50 to 250 | 10 to 50 | > 10000 | – | – | – |
| CC(C)Oc1ccc(-c2nnc(-c3cc(F)c(OC[C@H](N)[C@H](C)O)cc3Cl)s2)cc1C#N [Entry 83, 5-[5-(4-{[(2S,3S)-2-amino-3-hydroxybutyl]oxy}-2-chloro-5-fluorophenyl)-1,3,4-thiadiazol-2-yl]-2-[(1-methylethyl)oxy]benzonitrile] | ≤ 10 | ≤ 10 | 10 to 50 | > 10000 | – | – | – |
| CC(C)Oc1ccc(-c2nnc(-c3cc(F)c(OC[C@@H](N)[C@H](C)OP(=O)(O)O)cc3Cl)s2)cc1Cl [Entry 64, (1S,2R)-2-amino-3-{[5-chloro-4-(5-{3-chloro-4-[(1-methylethyl)oxy]phenyl}-1,3,4-thiadiazol-2-yl)-2-fluorophenyl]oxy}-1-methylpropyl dihydrogen phosphate] | ≤ 10 | ≤ 10 | ≤ 10 | – | – | ≤ 250 | – |
| CC(C)Oc1ccc(-c2nnc(-c3cc(F)c(OC[C@@H](N)COP(=O)(O)O)cc3Cl)s2)cc1Cl [Entry 16, (2R)-2-amino-3-{[5-chloro-4-(5-{3-chloro-4-[(1-methylethyl)oxy]phenyl}-1,3,4-thiadiazol-2-yl)-2-fluorophenyl]oxy}propyl dihydrogen phosphate] | ≤ 10 | ≤ 10 | 10 to 50 | – | – | ≤ 250 | – |
| (1S,2R)-2-amino-3-{[5-chloro-2-fluoro- 4-(5-{2-methyl-6-[(1- methylethyl)amino]pyridin-4-yl}-1,3,4- thiadiazol-2-yl)phenyl]oxy}-1- methylpropyl dihydrogen phosphate [Entry 101] | ≤ 10 | ≤ 10 | ≤ 10 | > 250 | – | – | – |
| CCCOc1ccc(-c2nnc(-c3cc(F)c(OC[C@H](N)CO)cc3Cl)s2)cc1Cl [Entry 17, (2R)-2-amino-3-[(5-chloro-4-{5-[3-chloro-4-(propyloxy)phenyl]-1,3,4-thiadiazol-2-yl}-2-fluorophenyl)oxy]propan-1-ol] | 10 to 50 | 50 to 250 | 50 to 250 | > 10000 | – | – | – |
| CC(C)Nc1ncc(-c2nnc(-c3cc(F)c(OC[C@@H](N)CO)cc3Cl)s2)cn1 [Entry 90, (2S)-2-amino-3-{[5-chloro-2-fluoro-4-(5-{2-[(1-methylethyl)amino]pyrimidin-5-yl}-1,3,4-thiadiazol-2-yl)phenyl]oxy}propan-1-ol] | 50 to 250 | – | 250 to 2800 | ≤ 250 | – | – | ≤ 10 |
| CC(C)Nc1ncc(-c2nnc(-c3cc(F)c(OC[C@H](N)CO)cc3Cl)s2)cn1 [Entry 89, (2R)-2-amino-3-{[5-chloro-2-fluoro-4-(5-{2-[(1-methylethyl)amino]pyrimidin-5-yl}-1,3,4-thiadiazol-2-yl)phenyl]oxy}propan-1-ol] | 50 to 250 | 10 to 50 | 250 to 2800 | > 10000 | – | – | – |
| CC(C)Oc1ncc(-c2nnc(-c3cc(F)c(OC[C@@H](N)CO)cc3Cl)s2)cc1Cl [Entry 32, (2S)-2-amino-3-{[5-chloro-4-(5-{5-chloro-6-[(1-methylethyl)oxy]pyridin-3-yl}-1,3,4-thiadiazol-2-yl)-2-fluorophenyl]oxy}propan-1-ol] | 10 to 50 | ≤ 10 | 250 to 2800 | ≤ 250 | – | – | – |
